Values joined by “and” are separate entries in the source; they are usually repeats but may differ in a detail not shown here. Equal entries are not always repeated.
Tested on: 188146-221-R-J1-PDC complex spheroid viability
Experiment: Anticancer human tumor 188146-221-R-J1-PDC patient-derived colon adenocarcinoma cell line growth inhibition [POLQ]
Settings: for viability, T/C: stronger effect = lower value
Protocol: Multicellular complex tumor spheroid response to Polymerase (POL) inhibitors (novobiocin, ART-558, RP6685) in combination with a variety of drugs and investigational agents in selected tumor cell lines
The POL inhibitors (novobiocin, ART-558, and RP6685) were evaluated both individually and in combination with standard of care and investigational anticancer small molecules within a complex spheroid model of solid tumors. . Complex spheroids include a stromal component modeled by human endothelial cells (HUVEC) and fibroblasts modeled by human mesenchymal stem cells (MSCs). The concentration ranges selected for each drug and investigational agent were based upon clinically achievable concentrations if the clinical Cmax of the agent was known.
Compounds. The drugs and investigational agents: novobiocin (NSC847541), ART-558 (NSC835418), RP-6685 (NSC848927), peposertib (NSC802822), ceralasertib (NSC780249), elimusertib (NSC800525), camonsertib (NSC841442), AZD-1390 (NSC803789), olaparib (NSC753686), talazoparib (NSC767125), rucaparib (NSC756644), sotorasib (NSC818433), MRTX-1133 (NSC836407), SN-38 (NSC673596), topotecan (NSC609699), epotoside (NSC141540), doxorubicin (NSC123127), gemcitabine (NSC613327), 5-fluorouracil (NSC19893), paclitaxel (NSC125973), vemurafenib (NSC761431), MSA-2 (NSC828583), SN-011 (NSC837082), adavosertib (NSC754352), prexasertib (NSC758257), carboplatin (NSC241240) and oxaliplatin (NSC266046), were obtained from the National Cancer Institute (NCI) Developmental Therapeutics Program Chemical Repository (21). The FDA-approved anticancer drug set is available from the Developmental Therapeutics Program at https://dtp.cancer.gov/organization/dscb/obtaining/. […] The stock solutions were prepared in dimethyl sulfoxide (DMSO, Sigma-Aldrich, St. Louis, MO, cat. D2650), except for the platinum compounds which were prepared in saline (Quality Biological, Gaithersburg, MD, cat. 114-055-101), at 800-fold the tested concentration and stored at -70 degrees C prior to their use. All drugs and investigational agents were tested over a range starting from a high concentration at or near the clinical Cmax and decreasing in half-log increments. If the clinical Cmax for an agent had not been determined, the highest concentration tested was 10 microM, except for SN-38, which was tested at a high concentration of 1 microM.
Cell Culture. All cells were maintained in an incubator at 37 degrees C and 5% CO2 with 95% humidity. The PDC lines were cultured according to standard operating procedures established by the NCI PDMR (https://pdmr.cancer.gov). Table 3 of the manuscript, lists the cell lines along with the number of the three cell types plated to form the mct-spheroids and media for tumor cell growth. After thawing, all PDC lines, except 997537-175-T-J1-PDC and 415267-285-R-J2-PDC, were cultured in Matrigel-coated flasks prepared with a working solution of 1X Ham's F-12 nutrient mix, without supplementation (Thermo Fisher Scientific, cat. 11765054), 100 U/mL penicillin-streptomycin (Thermo Fisher Scientific, cat. 15140122), and 2.5% Matrigel (Corning Inc., Corning, NY, cat. 354248) for the first three passages. The two PDC lines 997537-175-T-J1-PDC and 415267-285-R-J2-PDC were cultured on uncoated flasks. The 857933-349-R-J2-PDC line was cultured in 6C/Colon 1B media containing advanced DMEM/F-12 (Thermo Fisher Scientific, cat. 12634028), 10 mM HEPES (Thermo Fisher Scientific, cat. 15630080), 1X GlutaMAX supplement (Thermo Fisher Scientific, cat. 35050061), 0.1 mg/mL primocin (InvivoGen, San Diego, CA, cat. ant-pm-2), 10% defined fetal bovine serum, heat inactivated (HyClone Laboratories Inc., Logan, UT, cat. SH30070.03HI), 50% L-WRN conditioned media (ATCC, cat. CRL-3276), 1.25 mM N-Acetyl-L-cysteine (Sigma-Aldrich, cat. A9165), 10 mM nicotinamide (Sigma-Aldrich, cat. N0636), 1X B-27 supplement (Thermo Fisher Scientific, cat. 17504044), 1X N-2 supplement (Thermo Fisher Scientific, cat. […]
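Also: spheroids exposed to compounds for seven days.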
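For viability, T/C in this document: 100% = DMSO vehicle control viability.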

Q: With `CC(C)n1c(=O)n(C)c2cnc3cc(F)c(-c4ccc(OCCCN5CCCCC5)nc4)cc3c21` + Cc1cccc(N(C)C(=O)C2C(O)CCN2c2nc(C)cc(C(F)(F)F)c2C#N)c1 as the molecule, how does the IC50 (curve of first compound, second compound 0.0316 µM) read?
A: The IC50 was over 10 µM.

Q: And the IC50 (curve of first compound, second compound 0.1 µM)?
A: The IC50 was over 10 µM.

Q: What about the IC50 (curve of first compound, second compound 0.316 µM) of the same molecule?
A: Its IC50 is over 10 µM.

Q: And the IC50 (curve of first compound, second compound 1 µM)?
A: Its IC50 is over 10 µM.

Q: And the IC50 (curve of first compound, second compound 3.16 µM)?
A: Its IC50 is over 10 µM.

Q: What about the IC50 (curve of first compound, second compound 10 µM) of the same molecule?
A: The IC50 was over 10 µM.

Q: And the viability, T/C (second compound 0.0316 µM, first compound 0.0316 µM)?
A: Its viability, T/C is 110%.

Q: And the viability, T/C (second compound 0.0316 µM, first compound 0.1 µM)?
A: The viability, T/C was 97.9%.

Q: And the viability, T/C (second compound 0.0316 µM, first compound 0.316 µM)?
A: The viability, T/C was 100%.

Q: And the viability, T/C (second compound 0.0316 µM, first compound 1 µM)?
A: Its viability, T/C is 106%.

Q: What about the viability, T/C (second compound 0.0316 µM, first compound 3.16 µM) of the same molecule?
A: Its viability, T/C is 102%.

Q: What about the viability, T/C (second compound 0.0316 µM, first compound 10 µM) of the same molecule?
A: The viability, T/C was 83.7%.

Q: What about the viability, T/C (second compound 0.1 µM, first compound 0.0316 µM) of the same molecule?
A: Its viability, T/C is 109%.

Q: What about the viability, T/C (second compound 0.1 µM, first compound 0.1 µM) of the same molecule?
A: The viability, T/C was 98.5%.

Q: What about the viability, T/C (second compound 0.1 µM, first compound 0.316 µM) of the same molecule?
A: Its viability, T/C is 107%.

Q: What about the viability, T/C (second compound 0.1 µM, first compound 1 µM) of the same molecule?
A: The viability, T/C was 113%.

Q: What about the viability, T/C (second compound 0.1 µM, first compound 3.16 µM) of the same molecule?
A: The viability, T/C was 90.5%.

Q: And the viability, T/C (second compound 0.1 µM, first compound 10 µM)?
A: Its viability, T/C is 89.1%.

Q: And the viability, T/C (second compound 0.316 µM, first compound 0.0316 µM)?
A: The viability, T/C was 108%.

Q: And the viability, T/C (second compound 0.316 µM, first compound 0.1 µM)?
A: Its viability, T/C is 115%.

Q: What about the viability, T/C (second compound 0.316 µM, first compound 0.316 µM) of the same molecule?
A: The viability, T/C was 98.7%.

Q: What about the viability, T/C (second compound 0.316 µM, first compound 1 µM) of the same molecule?
A: Its viability, T/C is 100%.

Q: And the viability, T/C (second compound 0.316 µM, first compound 3.16 µM)?
A: The viability, T/C was 85.4%.

Q: And the viability, T/C (second compound 0.316 µM, first compound 10 µM)?
A: Its viability, T/C is 85.9%.

Q: What about the viability, T/C (second compound 1 µM, first compound 0.0316 µM) of the same molecule?
A: Its viability, T/C is 111%.

Q: And the viability, T/C (second compound 1 µM, first compound 0.1 µM)?
A: The viability, T/C was 107%.

Q: What about the viability, T/C (second compound 1 µM, first compound 0.316 µM) of the same molecule?
A: The viability, T/C was 104%.

Q: And the viability, T/C (second compound 1 µM, first compound 1 µM)?
A: The viability, T/C was 93%.

Q: And the viability, T/C (second compound 1 µM, first compound 3.16 µM)?
A: Its viability, T/C is 88.6%.

Q: What about the viability, T/C (second compound 1 µM, first compound 10 µM) of the same molecule?
A: The viability, T/C was 86.5%.

Q: What about the viability, T/C (second compound 3.16 µM, first compound 0.0316 µM) of the same molecule?
A: Its viability, T/C is 103%.

Q: And the viability, T/C (second compound 3.16 µM, first compound 0.1 µM)?
A: The viability, T/C was 104%.

Q: What about the viability, T/C (second compound 3.16 µM, first compound 0.316 µM) of the same molecule?
A: The viability, T/C was 100%.

Q: And the viability, T/C (second compound 3.16 µM, first compound 1 µM)?
A: Its viability, T/C is 82%.

Q: And the viability, T/C (second compound 3.16 µM, first compound 3.16 µM)?
A: Its viability, T/C is 99.6%.

Q: And the viability, T/C (second compound 3.16 µM, first compound 10 µM)?
A: The viability, T/C was 81.8%.

Q: What about the viability, T/C (second compound 10 µM, first compound 0.0316 µM) of the same molecule?
A: Its viability, T/C is 91.6%.

Q: What about the viability, T/C (second compound 10 µM, first compound 0.1 µM) of the same molecule?
A: Its viability, T/C is 85.8%.

Q: And the viability, T/C (second compound 10 µM, first compound 0.316 µM)?
A: Its viability, T/C is 101%.

Q: What about the viability, T/C (second compound 10 µM, first compound 1 µM) of the same molecule?
A: Its viability, T/C is 97.4%.

Q: What about the viability, T/C (second compound 10 µM, first compound 3.16 µM) of the same molecule?
A: Its viability, T/C is 93.7%.

Q: What about the viability, T/C (second compound 10 µM, first compound 10 µM) of the same molecule?
A: The viability, T/C was 95%.

Q: For `O=C(Nc1ccc(O)c(NS(=O)(=O)c2ccc(F)cc2)c1)c1ccc(-c2ccccc2)cc1`, which viability, T/C (compound 0.0316 µM) is on record?
A: The viability, T/C was 93.2% and 100% and 110%.

Q: What about the viability, T/C (compound 0.1 µM) of the same molecule?
A: The viability, T/C was 98.5% and 107% and 104%.

Q: What about the viability, T/C (compound 0.316 µM) of the same molecule?
A: The viability, T/C was 89.5% and 95.1% and 93.5%.

Q: What about the viability, T/C (compound 1 µM) of the same molecule?
A: The viability, T/C was 93.2% and 103% and 118%.

Q: And the viability, T/C (compound 3.16 µM)?
A: Its viability, T/C is 99.4% and 81.3% and 100%.

Q: What about the viability, T/C (compound 10 µM) of the same molecule?
A: The viability, T/C was 59.1% and 73.5% and 78.4%.

Q: And the IC50 (curve of compound)?
A: The IC50 was over 10 µM.

From PubChem BioAssay AID1963851 (Molecular Pharmacology Branch, DTP, NCI, 2024)
